One data set concerns the target T1, hCTPS1 enzyme (Homo sapiens, UniProt P17812).
T1 sequence (P17812 1-591): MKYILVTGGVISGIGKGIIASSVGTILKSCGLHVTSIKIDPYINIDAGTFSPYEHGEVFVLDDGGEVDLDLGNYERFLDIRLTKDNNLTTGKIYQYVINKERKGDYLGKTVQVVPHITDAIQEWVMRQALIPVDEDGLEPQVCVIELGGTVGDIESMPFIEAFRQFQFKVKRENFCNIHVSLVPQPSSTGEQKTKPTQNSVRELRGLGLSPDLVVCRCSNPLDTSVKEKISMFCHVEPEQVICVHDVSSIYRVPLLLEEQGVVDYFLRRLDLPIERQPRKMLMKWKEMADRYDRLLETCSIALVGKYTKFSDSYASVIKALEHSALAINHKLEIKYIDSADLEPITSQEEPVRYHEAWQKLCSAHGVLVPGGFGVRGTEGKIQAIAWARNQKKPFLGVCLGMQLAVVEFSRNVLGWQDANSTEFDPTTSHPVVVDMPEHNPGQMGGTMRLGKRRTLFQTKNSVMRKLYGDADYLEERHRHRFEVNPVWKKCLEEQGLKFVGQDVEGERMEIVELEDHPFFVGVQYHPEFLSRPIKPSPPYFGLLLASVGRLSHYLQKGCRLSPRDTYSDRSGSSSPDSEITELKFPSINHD
Put plainly: Inhibition of CTPS1 enzyme activity (ADP-Glo method). In kind it is biochemical. Particulars: hCTPS1, 90 min reaction at 25° C. On the procedure: The enzyme activity of CTPS1 was tested using the ADP-Glo method. Compounds were serially diluted in DMSO with 3-fold gradients across ten concentrations. Transfer 0.1 μL of diluted compound to a 384-well plate, centrifuge at 1000 rpm for 1 min. Add 2.5 μL of hCTPS1 enzyme working solution, centrifuge at 1000 rpm for 1 min, and incubate at 25° C. for 10 min. Add 2.5 μL of ATP & UTP solution and incubate at 25° C. for 10 min. Add 5 μL of substrate solution to initiate the reaction and incubate at 25° C. for 90 min. Add 10 μL of ADP-Glo solution to the 384-well plate, centrifuge at 1000 rpm for 1 min, incubate at 25° C. for 40 min, add 20 μL of detection solution, centrifuge at 1000 rpm for 1 min, and incubate at 25° C. for 60 min. […] were read using a BMG microplate reader. Inhibition rate (%) was calculated as follows: Inhibition rate (%)=[(DMSO control well signal−Compound well signal)/(DMSO control well signal−Blank control well signal)]×100%. IC50 values for compounds were analyzed by nonlinear regression in XLFit 5.5.0 software using the formula: Y=Bottom+(Top−Bottom)/(1+10^((LogIC50−X)*HillSlope)) where Y is the inhibition rate and X is the log value of compound concentration.

A short description of another data set: in vivo. Also noted: species or system SD rats. Conditions: male, SD, rat, po, 3 mg/kg. On the procedure: Instrumentation: SCIEX Triple Quad 6500+ triple quadrupole liquid chromatography-mass spectrometry system (LC-MS/MS), operating software is Analyst 1.7.2 (Applied Biosystems, USA); ExionLC liquid chromatography system; Microsoft Excel was used for data calculation and processing. Pharmacokinetic parameters were calculated using the statistical moment method with WinNonlin 8.2 software. Key kinetic parameters included Tmax, T1/2, Cmax, AUC0-24 h etc. Column: Synergi 4 μm Fusion-RP 80 Å Luna C18 2 mm*50 mm, 4 μm; Column temperature: 40° C.; Mobile phase A: Water (0.1% formic acid); Mobile phase B: Acetonitrile; Flow rate: 0.8 mL/min; Gradient elution is adopted, the elution gradient is 0.10 min: 15% B; 1.60 min: 95% B; 1.90 min: 95% B; 1.91 min: 15% B; 2.20 min: 15% B. Injection volume: 1 μL.
Animals: 3 male SD rats with a weight range of 200-220 g were purchased and kept in the laboratory of the Experimental Animal Center for 3 days and then used. They were fasted for 12 hours predose and 4 hours after dosing. Drinking water was free during the test. After the rats were gavage, blood samples were taken according to the established time point.
Solvent: 0.4% ethanol+0.4% Tween80+99.2% (0.5% methylcellulose M450). Preparation of the solution for intragastric administration: Compounds were accurately weighed and added to the solvent. The mixture was then subjected to vortex mixing and sonication until a homogeneous suspension was achieved, thereby preparing medicinal solutions of the desired concentrations.
Compound samples: Typically, multiple structurally analogous compounds (with molecular weights differing by more than 2 units) were accurately weighed and administered together (cassette PK). This approach allows for the simultaneous screening of multiple compounds and comparison of their oral absorption rates. Single compound administration was also employed to study the pharmacokinetics of drug samples in rats.
After intragastric administration, blood was collected from the jugular vein at 0.25, 0.5, 1, 2, 4, 8, 10 and 24 hours. Transfer 20 μL of plasma sample (for blank samples and internal standard blank samples, add 20 μL of blank plasma) to a 1.5 mL centrifuge tube, add 200 μL of internal standard solution (50% methanol in acetonitrile (concentration 100 ng/mL)) (for Double blank samples, add 200 μL of 50% methanol in acetonitrile solution). Vortex the samples for 5 minutes, then centrifuge at 14000 rpm and 4° C. for 5 minutes. Transfer 80 μL and add to 80 μL of water, mix uniformly, and submit for LC-MS/MS analysis.
The compounds were accurately weighed to prepare different concentrations, and quantitative analysis on mass spectrometry was performed to establish a standard curve, and then the concentration of the above-mentioned compound in the plasma was tested to obtain its concentration at different time points. All measurement data were collected and processed by relevant software, and the statistical moment method was used to calculate the pharmacokinetic parameters (mainly including kinetic parameters Tmax, T1/2, Cmax, AUC0-24 h etc).

The subject of another data set is Jurkat cells. Put plainly: Inhibition of Jurkat cell proliferation (CellTiter-Glo, 72 hours). In kind it is cell-based. Conditions: Homo sapiens. The procedure: Select Jurkat cells in good growth condition and digest them with trypsin. Add fresh culture medium, mix thoroughly, and centrifuge at 1000 rpm for 5 minutes. Seed the cells into a 96-well plate at a density of 10,000 cells per well, and incubate overnight in a 37° C. incubator. On the following day, take out of the culture plate and treat the cells with compounds prepared in a five-fold serial dilution. Return the plate to the 37° C. incubator and continue incubation for 72 hours.
After incubation, bring out the cell culture plate and equilibrate it to room temperature. Add 100 μL of CellTiter-Glo reagent to each well, shake in the dark for 2 minutes, and incubate for 10 minutes. Measure the luminescence using an Enspire plate reader. Calculate the inhibition rate using the following formula: Inhibition rate (%)=(1−(RLU_compound−RLU_blank)/(RLU_DMSO−RLU_blank))×100%. Plot the dose-response curve and calculate the IC50 value using XLFit.

Setting [1] is: Jurkat cells, 72 hours, CellTiter-Glo, read-out: Jurkat (IC50).

Where two headings read alike, the source gives them in different places.

The compound `CCOc1cncc(-c2ccc(NC(=O)C3(c4ccnc(NS(=O)(=O)C5CC5)n4)CCC(=C(F)F)CC3)nc2)n1` (stereo not drawn) [Compound 1] registered a concentration for half-maximal inhibition (IC50) against hCTPS1 enzyme below 25 nM. For the same compound, in “in vivo”, the AUC(0-t) came out at 68800 ng·h/mL, the Cmax is 11300 ng/mL, the Tmax is 0.83 h and the half-life is 4.98 h. Moreover, the half-inhibitory concentration (IC50) in the data set with Jurkat cells (setting [1]) is below 30 nM.

As to `CCOc1cncc(-c2ccc(NC(=O)C3(c4ccnc(NS(=O)(=O)C5CC5)n4)CCC(=C(C)C)CC3)nc2)n1` (stereo not drawn) [Compound 2], the IC50 against hCTPS1 enzyme and in the data set on Jurkat cells (setting [1]) was below 50 nM throughout.

For the compound `CCOc1cncc(-c2ccc(NC(=O)C3(c4ccnc(NS(=O)(=O)C5CC5)n4)CCC(=CC#N)CC3)nc2)n1` (stereo not drawn) [Compound 8], the results for the IC50 against hCTPS1 enzyme and in the data set on Jurkat cells (setting [1]) were below 50 nM and below 15 nM, respectively.

The compound `CCOc1cncc(-c2ccc(NC(=O)C3(c4ccnc(NS(=O)(=O)C5CC5)n4)CCC(=CF)CC3)nc2)n1` (stereo not drawn) [Compound 10] yielded an IC50 against hCTPS1 enzyme below 25 nM. For the same compound, in “in vivo”, the AUC(0-t) turned out to be 87200 ng·h/mL, the Cmax worked out at 9330 ng/mL, the Tmax is 3.33 h and the half-life was 4.95 h. Moreover, the IC50 with Jurkat cells (setting [1]) is below 30 nM.

For `CCOc1cncc(-c2ccc(NC(=O)C3(c4ccnc(NS(=O)(=O)C5CC5)n4)CCC(=CCN4CCOCC4)CC3)nc2)n1` (stereo not drawn) [Compound 11], the IC50 is below 25 nM on hCTPS1 enzyme and below 15 nM with Jurkat cells (setting [1]).

Take `CCOc1cncc(-c2ccc(NC(=O)C3(c4ccnc(NS(=O)(=O)C5CC5)n4)CCC(=CCN4CCN(C)CC4)CC3)nc2)n1` (stereo not drawn) [Compound 13]: the IC50 at hCTPS1 enzyme and with Jurkat cells (setting [1]) was below 50 nM throughout.

Take `CCOc1cncc(-c2ccc(NC(=O)C3(c4ccnc(NS(=O)(=O)C5CC5)n4)CC(=CC(=O)OC)C3)nc2)n1` (stereo not drawn) [Compound 14]: the IC50 on hCTPS1 enzyme was below 50 nM; in the data set with Jurkat cells (setting [1]), below 30 nM.

For the compound `CCOc1cncc(-c2ccc(NC(=O)C3(c4ccnc(NS(=O)(=O)C5CC5)n4)CCC(=CCN(C)C)CC3)nc2)n1` (stereo not drawn) [Compound 15], the IC50 is below 100 nM against hCTPS1 enzyme and below 50 nM with Jurkat cells (Jurkat, 72 h, read-out: Jurkat (IC50, nM)).

For `CCOc1cncc(-c2ccc(NC(=O)C3(c4ccnc(NS(=O)(=O)C5CC5)n4)CCC(=CCN4CCCC4)CC3)nc2)n1` (stereo not drawn) [Compound 16], the IC50 at hCTPS1 enzyme and with Jurkat cells (setting [1]) was below 50 nM in each case.

At hCTPS1 enzyme, `CCOc1cncc(-c2ccc(NC(=O)C3(c4ccnc(NS(=O)(=O)C5CC5)n4)CCC(=CCNC(C)=O)CC3)nc2)n1` (stereo not drawn) [Compound 22] returned an IC50 below 50 nM. Also, in “in vivo”, the exposure AUC(0-t) worked out at 137 ng·h/mL, the Cmax came out at 177 ng/mL, the Tmax is 0.25 h and the half-life is 1.64 h. Besides, the IC50 with Jurkat cells (setting [1]) is below 30 nM.

As for `CCOc1cncc(-c2ccc(NC(=O)C3(c4ccnc(NS(=O)(=O)C5CC5)n4)CCC(=CCNS(C)(=O)=O)CC3)nc2)n1` (stereo not drawn) [Compound 23], the IC50 at hCTPS1 enzyme and in the data set with Jurkat cells (setting [1]) was below 50 nM each time.

Compound `C=CC(=O)N1CCC(C(=O)Nc2ccc(-c3cncc(OCC)n3)cn2)(c2ccnc(NS(=O)(=O)C3CC3)n2)CC1` [Compound 26] showed an IC50 against hCTPS1 enzyme below 50 nM. Besides, in the data set “in vivo”, the AUC(0-t) was 288 ng·h/mL, the Cmax is 118 ng/mL, the Tmax turned out to be 0.5 h and the half-life is 1.84 h. Moreover, the IC50 in the data set on Jurkat cells (setting [1]) is below 30 nM.

For `CCOc1cncc(-c2ccc(NC(=O)C3(c4ccnc(NS(=O)(=O)C5CC5)n4)CCC(=CCN4CC(O)C4)CC3)nc2)n1` (stereo not drawn) [Compound 27], the IC50 was below 50 nM at hCTPS1 enzyme and below 100 nM with Jurkat cells (setting [1]).

`CCOc1cncc(-c2ccc(NC(=O)C3(c4ccnc(NS(=O)(=O)C5CC5)n4)CCC(=CCN4CC(OC)C4)CC3)nc2)n1` (stereo not drawn) [Compound 28] yielded an IC50 against hCTPS1 enzyme below 50 nM. In the data set “in vivo”, the AUC(0-t) is 46.7 ng·h/mL, the Cmax worked out at 33.1 ng/mL, the Tmax turned out to be 0.25 h and the half-life was 1.8 h. The IC50 in the data set with Jurkat cells (setting [1]) is below 15 nM.

Turning to `CCOc1cncc(-c2ccc(NC(=O)C3(c4ccnc(NS(=O)(=O)C5CC5)n4)CCC(=CCN(C)CCOC)CC3)nc2)n1` (stereo not drawn) [Compound 29], the IC50 was below 100 nM on hCTPS1 enzyme and below 30 nM in the data set with Jurkat cells (setting [1]).

As for `CCOc1cncc(-c2ccc(NC(=O)C3(c4ccnc(NS(=O)(=O)C5CC5)n4)CCN(C4CC(=C(F)F)C4)CC3)nc2)n1` (stereo not drawn) [Compound 31], the figures for the IC50 against hCTPS1 enzyme and in the data set on Jurkat cells (setting [1]) were below 100 nM and below 50 nM, respectively.

Turning to `CCOc1cncc(-c2ccc(NC(=O)C3(c4ccnc(NS(=O)(=O)C5CC5)n4)CCC(=C(C)F)CC3)nc2)n1` (stereo not drawn) [Compound 37], the IC50 was below 25 nM against hCTPS1 enzyme and below 30 nM with Jurkat cells (setting [1]).

As to `CCOc1cncc(-c2ccc(NC(=O)C3(c4ccnc(NS(=O)(=O)C5CC5)n4)CCC(=CCCOC)CC3)nc2)n1` (stereo not drawn) [Compound 45], the IC50 was below 25 nM against hCTPS1 enzyme and below 30 nM in the data set with Jurkat cells (setting [1]).

In the case of `CCOc1cncc(-c2ccc(NC(=O)C3(c4ccnc(NS(=O)(=O)C5CC5)n4)CC(=CC4CCOCC4)C3)nc2)n1` (stereo not drawn) [Compound 48], the IC50 against hCTPS1 enzyme is below 100 nM; in the data set with Jurkat cells (setting [1]), below 30 nM.

For the compound `CCOc1cncc(-c2ccc(NC(=O)C3(c4ccnc(NS(=O)(=O)C5CC5)n4)CCC(=C(F)CN4CCOCC4)CC3)nc2)n1` (stereo not drawn) [Compound 54], the IC50 against hCTPS1 enzyme and in the data set with Jurkat cells (setting [1]) was below 50 nM throughout.

For the compound `CCOc1cncc(-c2ccc(NC(=O)C3(c4ccnc(NS(=O)(=O)C5CC5)n4)CCC(=Cc4cccnc4)CC3)nc2)n1` (stereo not drawn) [Compound 55], the results for the IC50 at hCTPS1 enzyme and with Jurkat cells (setting [1]) were below 25 nM and below 50 nM, respectively.

As for `CCOc1cncc(-c2ccc(NC(=O)C3(c4ccnc(NS(=O)(=O)C5CC5)n4)CCC(=CC4(C)COC4)CC3)nc2)n1` (stereo not drawn) [Compound 62], the values for the IC50 against hCTPS1 enzyme and with Jurkat cells (setting [1]) were below 25 nM and below 15 nM, respectively.

For the compound `CCOc1cncc(-c2ccc(NC(=O)C3(c4ccnc(NS(=O)(=O)C5CC5)n4)CCC(=C(F)CC(C)(C)O)CC3)nc2)n1` (stereo not drawn) [Compound 67], the IC50 at hCTPS1 enzyme and with Jurkat cells (setting [1]) was below 50 nM throughout.

Source of the values: patent US20260226026A1, “COMPOUND AS CTPS1 INHIBITOR” (Hangzhou Innogate Pharma Co., Ltd., priority 2023, published 2026).
